This is an account of results in PMC5424463, “A strategy based on nucleotide specificity leads to a subfamily-selective and cell-active inhibitor of N ^6-methyladenosine demethylase FTO” (Chemical Science, 2014).

The experiment deals with T1, ALKBH5 (Homo sapiens, UniProt Q6P6C2).
T1 construct: pNIC28-Bsa4 ALKBH5 (encompassing residues 66-292); made in house; host or cells: E. coli BL21 (DE3) Rosetta T1R
Put plainly: HPLC-based inhibition assay for ALKBH5, m6A-ssRNA substrate. It counts as biochemical. The conditions noted are these: 5-mer m6A-ssRNA substrate. The procedure: Figure S4. Enzyme inhibition curves of 12 against FTO and ALKBH5, as determined by a HPLC-based assay using m6A-containing ssRNA substrates. The substrate sequences for the FTO and ALKBH5 assays are 5’-CUUGUCA(m6A)CAGCAGA-3’ and 5’-GG(m6A)CU-3’, […]
respectively, which represents >100-fold selectivity for FTO over ALKBH5.
(1 picture or pasted object on this page, not shown here) […]
chloride) over 18 min, at a flow rate of 1 mL/min at 40°C. The UV detection wavelength was set at 266 nm. The percentage inhibition was estimated based on the peak areas of the m6A-ssRNA substrate and the corresponding demethylated product. For IC50 determination, eight […]
were then calculated from the variation in percentage demethylation at different inhibitor concentrations, using nonlinear regression, with normalized dose-response fit on GraphPad […]
HPLC-based inhibition assays for AlkB and ALKBH2
The assay was modified from previously reported method.[18] A 15-mer m1A-ssDNA substrate with the sequence 5’-AAAGCAG(m1A)ATTCGAA-3 ’ (Yale University, W.M.
Keck Foundation Biotechnology Resource Laboratory) was used in this inhibition assay. The assay was performed in triplicate for each inhibitor, in a final reaction volume of 25 µL. […]

T1 sequence (Q6P6C2 66-292): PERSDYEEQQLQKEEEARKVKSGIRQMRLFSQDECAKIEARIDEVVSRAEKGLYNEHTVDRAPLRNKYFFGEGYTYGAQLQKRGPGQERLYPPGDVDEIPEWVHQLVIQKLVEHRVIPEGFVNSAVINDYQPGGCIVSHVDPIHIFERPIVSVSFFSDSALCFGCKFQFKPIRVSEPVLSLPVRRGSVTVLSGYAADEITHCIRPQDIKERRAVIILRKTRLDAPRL

`O=C(O)/C=C/C(=O)NNC(=O)c1cnccc1Cc1ccccc1` [Compound 12] yielded an IC50 of 96.5 µM.
